What was measured:
ACP-03 = test: MTT cytotoxicity assay, ACP-03 gastric cancer cells; format: cell-based, human; conditions: IC50 with 95% confidence interval, triplicate, 72 h incubation
Description: (§1) In vitro anticancer activity of compounds 2, 3 and 4a–r was evaluated against three human cancer cell lines in comparison to doxorubicin by using MTT assay.
(§2) Compounds (0.312–20 μM) were tested for cytotoxic activity against three cancer cell lines: ACP-03 (gastric), SKMEL-19 (melanoma) and HCT-116 (colon). All cell lines were maintained in DMEM medium supplemented with 10% fetal bovine serum, 2 mM glutamine, 100 U/mL penicillin, and […] streptomycin at 37 °C with 5% CO2. Each compound was dissolved in DMSO and diluted with water to obtain a concentration of 20 μM. They were incubated with the cells for 72 h. The negative control received the same amount of DMSO (0.005% in the highest concentration). Doxorrubicin was used as a positive control. The cell viability was determined by reduction of the yellow dye 3-(4,5-dimethyl-2-thiazol)-2,5-diphenyl-2H-tetrazolium bromide (MTT) to a blue formazan product after 48 h as described by Mosmann.

SKMEL-19 = test: MTT cytotoxicity assay, SKMEL-19 melanoma cells; format: cell-based, human; conditions: IC50 with 95% confidence interval, triplicate, 72 h incubation
Description: as §1, §2

HCT-116 = test: MTT cytotoxicity assay, HCT-116 colon cancer cells; format: cell-based; conditions: Homo sapiens, IC50 with 95% confidence interval, triplicate, 72 h incubation
Description: as §1, §2

[1] = Cell membrane disruption (hemolysis) of mouse erythrocytes; format: cell-based; conditions: mouse erythrocytes (2% suspension), 2% mouse erythrocyte suspension, room temperature, tested 1.5 to 200 μg/mL, lysis 50% of Triton X-100
Description: The mechanical stability of red blood cells is a good parameter for in vitro screening of unspecific cytotoxicity, since the membrane of erythrocyte can suffer significant changes in its structural properties. In order to verify whether the cytotoxicity of the compounds was linked to the membrane disruption, the ability to induce lysis of mouse erythrocytes was investigated, and no membrane damage was found for all tested compounds (EC50 > 200 μg/mL).
The test was performed in 96-well plates using a 2% mouse erythrocyte suspension in 0.85% NaCl containing 10 mM CaCl2. The compounds diluted as mentioned above were tested at concentrations ranging from 1.5 to 200 μg/mL. After incubation at room temperature for 30 min and centrifugation, the supernatant was removed and the liberated hemoglobin was measured spectrophotometrically at 540 nm. DMSO was used as a negative control and Triton X-100 (1%) was used as positive control. EC50 is the calculated effective dose that induced lysis on 50% that of the Triton X-100 [37].

Compound	IC50 (ACP-03; Homo sapiens, 72 h) [µM]	IC50 (SKMEL-19; Homo sapiens, SK-MEL19, 72 h) [µM]	IC50 (HCT-116) [µM]	EC50 at 30 min [1] [µg/mL]	melting point	IC50 (ACP-03) [µM]	IC50 (SKMEL-19) [µM]
O=c1oc2cc(O)c(/N=C/c3cccc([N+](=O)[O-])c3)cc2s1 [Compound 4c, (E)-6-Hydroxy-5-(3-nitrobenzylideneamino)benzo[d][1,3]oxathiol-2-one]	> 10	> 10	> 10	> 200	220 to 222 °C		
O=c1oc2cc(O)c(/N=C/c3ccc(-c4ccccn4)cc3)cc2s1 [Compound 4q, (E)-6-Hydroxy-5-(4-(pyridin-2-yl)benzylideneamino)benzo[d][1,3]oxathiol-2-one]	> 10	> 10	> 10	> 200	201 to 203 °C		
N#Cc1ccc(/C=N/c2cc3sc(=O)oc3cc2O)cc1 [Compound 4a, (E)-4-((6-Hydroxy-2-oxobenzo[d][1,3]oxathiol-5-ylimino)methyl)benzonitrile]	> 10	> 10	> 10	> 200	261 to 263 °C		
O=c1oc2cc(O)c([N+](=O)[O-])cc2s1 [Compound 2, 6-Hydroxy-5-nitrobenzo[d][1,3]oxathiol-2-one]	> 10	> 10	> 10	> 200	180 to 182 °C		
O=c1oc2cc(O)c(/N=C/c3ccc(Br)cc3)cc2s1 [Compound 4d, (E)-5-(4-Bromobenzylideneamino)-6-hydroxybenzo[d][1,3]oxathiol-2-one]	> 10	> 10	> 10	> 200	211 to 213 °C		
O=c1oc2cc(O)c(/N=C/c3cc(O)ccc3O)cc2s1 [Compound 4n, (E)-5-(2,5-Dihydroxybenzylideneamino)-6-hydroxybenzo[d][1,3]oxathiol-2-one]	> 10	5.6	> 10	> 200	261 to 263 °C		
COc1cccc2c1C(=O)c1c(O)c3c(c(O)c1C2=O)C[C@@](O)(C(=O)CO)C[C@@H]3O[C@H]1C[C@H](N)[C@H](O)[C@H](C)O1 [Dox, Doxorubicin, reference compound]	0.274	0.045	0.1	> 200			
COc1ccc(/C=N/c2cc3sc(=O)oc3cc2O)cc1 [Compound 4j, (E)-6-Hydroxy-5-(4-methoxybenzylideneamino)benzo[d][1,3]oxathiol-2-one]	> 10	> 10	> 10	> 200	177 to 178 °C		
O=c1oc2cc(O)c(/N=C/c3ccc([N+](=O)[O-])cc3)cc2s1 [Compound 4b, (E)-6-Hydroxy-5-(4-nitrobenzylideneamino)benzo[d][1,3]oxathiol-2-one]	< 5	> 10	> 10	> 200	223 to 224 °C	4.8	
O=c1oc2cc(O)c(/N=C/c3ccccc3O)cc2s1 [Compound 4k, (E)-6-Hydroxy-5-(2-hydroxybenzylideneamino)benzo[d][1,3]oxathiol-2-one]	> 10	> 10	> 10	> 200	252 to 253 °C		
O=c1oc2cc(O)c(/N=C/c3cccc(O)c3O)cc2s1 [Compound 4l, (E)-5-(2,3-Dihydroxybenzylideneamino)-6-hydroxybenzo[d][1,3]oxathiol-2-one]	> 10	> 10	> 10	> 200	244 to 246 °C		
CN(C)c1ccc(/C=N/c2cc3sc(=O)oc3cc2O)cc1 [Compound 4i, (E)-5-(4-(Dimethylamino)benzylideneamino)-6-hydroxybenzo[d][1,3]oxathiol-2-one]	> 10	> 10	> 10	> 200	199 to 201 °C		
O=c1oc2cc(O)c(/N=C/c3cc([N+](=O)[O-])ccc3O)cc2s1 [Compound 4o, (E)-6-Hydroxy-5-(2-hydroxy-5-nitrobenzylideneamino)benzo[d][1,3]oxathiol-2-one]	> 10	< 5	> 10	> 200	293 to 294 °C		2.8
O=c1oc2cc(O)c(/N=C/c3cccc(Br)c3)cc2s1 [Compound 4e, (E)-5-(3-Bromobenzylideneamino)-6-hydroxybenzo[d][1,3]oxathiol-2-one]	> 10	> 10	> 10	> 200	179 to 180 °C		
O=c1oc2cc(O)c(/N=C/c3ccc(O)cc3O)cc2s1 [Compound 4m, (E)-5-(2,4-Dihydroxybenzylideneamino)-6-hydroxybenzo[d][1,3]oxathiol-2-one]	> 10	9.4	> 10	> 200	284 to 285 °C (dec.)		
O=c1oc2cc(O)c(/N=C/c3ccccc3)cc2s1 [Compound 4h, (E)-5-(Benzylideneamino)-6-hydroxybenzo[d][1,3]oxathiol-2-one]	> 10	> 10	> 10	> 200	232 to 233 °C		
Nc1cc2sc(=O)oc2cc1O [Compound 3, 5-Amino-6-hydroxybenzo[d][1,3]oxathiol-2-one]	> 10	> 10	> 10	> 200	194 to 195 °C		
O=c1oc2cc(O)c(/N=C/c3cc(Br)ccc3O)cc2s1 [Compound 4p, (E)-5-(5-Bromo-2-hydroxybenzylideneamino)-6-hydroxybenzo[d][1,3]oxathiol-2-one]	> 10	> 10	> 10	> 200	250 to 252 °C		
O=c1oc2cc(O)c(/N=C/c3ccc(Cl)cc3Cl)cc2s1 [Compound 4g, (E)-5-(2,4-Dichlorobenzylideneamino)-6-hydroxybenzo[d][1,3]oxathiol-2-one]	> 10	> 10	> 10	> 200	221 to 223 °C		
O=c1oc2cc(O)c(/N=C/c3ccc4c(c3)OCO4)cc2s1 [Compound 4r, (E)-5-(Benzo[d][1,3]dioxol-5-ylmethyleneamino)-6-hydroxybenzo[d][1,3]oxathiol-2-one]	> 10	> 10	> 10	> 200	232 to 233 °C		
O=c1oc2cc(O)c(/N=C/c3ccc(Cl)cc3)cc2s1 [Compound 4f, (E)-5-(4-Chlorobenzylideneamino)-6-hydroxybenzo[d][1,3]oxathiol-2-one]	> 10	> 10	> 10	> 200	210 to 212 °C		

From PMC6272564, “Synthesis and Biological Evaluation of Novel 6-Hydroxy-benzo[d][1,3]oxathiol-2-one Schiff Bases as Potential Anticancer Agents” (Molecules, 2015)
